Experimental data taken from patent EP0408330A2, “Anti-infective agents, process for their preparation and their use in therapy” (priority 1989, dated 1991).

Tests used:
[1] = system: Gram negative bacteria; test: In vitro assessment of Gram negative activity (MIC/MBC panel); assay type: cell-based
Procedure: (§1) Minimum inhibitory concentrations (MIC), minimum bactericidal concentrations (MBC), rates of killing and the incidence of naturally occurring resistant mutants were determined for silver fusidate prepared according to Example 1. MICs were determined by the plate dilution method using IsoSensitest (IsoSensitest is a Trade Mark) media supplemented where necessary with 5% lysed horse blood. Two inocula were used, 10⁶ and 10⁴ cfu. MICs were read after overnight incubation in the appropriate atmosphere. The plates bearing the 10⁶ inocula were replicated using velvet pads for the determination of MBC which is defined as the lowest antibiotic concentration killing at least 99.9% of the original inoculum.
(§2) 20 strains of the following species were tested:
(§3) Gram negative: Escherichia coli, Enterobacter spp., Klebsiella pneumoniae, Acinetobacter spp., Pseudomonas aeruginosa, Providencia stuartii, Proteus mirabilis, indole-positive Proteae (10 each of Prov. rettgeri and Pr. vulgaris).

[2] = system: Pseudomas sp.; test: MIC / MBC, plate dilution method (MBC by replica plating with velvet pads); assay type: cell-based, Pseudomonas aeruginosa
Procedure: as §1, §2, §3

[3] = system: one particular strain of Staphyloccus; test: Rates of killing; assay type: cell-based; settings: non-growing state compared with growing state
Procedure: as §1
This is a very interesting observation because it is known that certain strains of Staphylococcus colonize, e.g., the nose, creating in the host a carrier state. Carrier state hosts are a constant source of potential infection both for themselves and those they come in contact with. This is a particularly troublesome source of infections in the hospital environment. It is recognized that the cheapest and most efficient way off removing this problem from a hospital is to remove or discharge the carrier. […]

[4] = system: various strains of Staphylococcus; test: Incidence of naturally occurring resistant mutants; assay type: cell-based; settings: absence of growth in the presence of 100 µg/ml
Procedure: as §1

[5] = system: MRSA; test: MIC / MBC, plate dilution method (MBC by replica plating with velvet pads); assay type: cell-based, methicillin-resistant Staph. aureus (MRSA); settings: inoculum of 10⁶ org/ml, 20 strains
Procedure: as §1, §2
(§4) Gram positive: methicillin-resistant Staph. aureus (MRSA), methicillin-sensitive Staph. aureus (MSSA), methicillin-resistant Staph. epidermidis (MRSE), Enterocci, Streptococcus pyogenes, Candida albicans, Clostridium spp.

[6] = system: Gram positive and Gram negative bacteria and Candida albicans; test: In vitro assessment of spectrum of activity (MIC/MBC panel); assay type: cell-based; settings: compared to sodium fusidate and silver sulphadiazine
Procedure: as §1, §2, §4, §3

[7] = system: Gram positive bacteria; test: MIC determination, zinc fusidate panel, overall assessment; assay type: cell-based
Procedure: (§5) MICs were determined for zinc fusidate prepared according to Example 3 using the following Gram positive and Gram negative panels:
(§6) 4 strains of Staphylococcus aureus (2 methicillin-resistant, 2 methicilllin-sensitive) and 2 strains each of coagulase-negative staphylococci, Staph. saprophyticus, Enterococci, Streptococcus pyogenes, Strept. agalactiae, Listeria monocytogenes, diphtheroids and Bacillus spp., 2 strains each of Escherichia coli, Klebsiella pneumoniae, Pseudomonas aeruginosa, Providencia stuartii, Proteus morganii, Salmonella typhimurium, Acinetobacter spp., Citrobacter freundii, Serratia marcescens and Enterobacter cloacae.

[8] = system: coagulase negative Staphylococci; test: MIC determination, zinc fusidate panel; assay type: cell-based; settings: 2 strains
Procedure: as §5, §6

[9] = system: remaining Gram positive organisms; test: MIC determination, zinc fusidate panel; assay type: cell-based; settings: remaining Gram positive organisms of the panel
Procedure: as §5, §6

CC(=O)O[C@H]1C[C@@]2(C)[C@@H](C[C@@H](O)[C@H]3[C@@]4(C)CC[C@@H](O)[C@@H](C)[C@@H]4CC[C@@]32C)/C1=C(\CCC=C(C)C)C(=O)O [sodium fusidate]
Gram negative activity [1]: total lack of Gram negative activity

silver fusidate
MBC range [2]: 32 to 64 µg/mL | MIC range [2]: 32 to 64 µg/mL | rate of killing [3]: killed more rapidly in a non-growing state | incidence of silver fusidate resistant mutants [4]: too low to be measured | MIC range [5]: 0.13 to 64 µg/mL | spectrum of activity [6]: broad spectrum of activity

silver salt of N¹-(pyrimidin-2-yl) sulphanilamide [silver sulphadiazine, reference compound]
MBC range ([5]; lowest concentration killing at least 99.9% of the original inoculum): 128 to 256 µg/mL

zinc fusidate
activity against Gram positive bacteria [7]: demonstrates activity | MIC range [8]: 10 to 100 µg/mL | MIC range [9]: <1 to 10 µg/mL
